The subject of test [1] is Propionibact. acnes ATCC 6919 L1014. Description: MIC by microbroth dilution. Type of test: cell-based, Propionibacterium acnes. The note with it: 0.01% (w/v) BSA, 10^5 CFU/ml, read after 48 h, 37° C., anaerobic N2-CO2-H2, Wilkins-Chalgren broth. As to the method:
(§1) The minimal inhibitory concentration (MIC) has been determined by microbroth dilution methodology, in the presence of 0.01% (w/v) of bovine serum albumin (BSA). BSA is added to the diluent to avoid possible adherence of the compounds of the invention to the plastic surface of the microtiter wells, as disclosed also by B. Goldstein et al., Antimicrobial Agents and Chemotherapy, 37 (1993), 741-745.
(§2) Inocula were 10^4 CFU/ml, except for Propionibacterium acnes and Bacteroides fragilis (10^5 CFU/ml).
(§3) MICs were read after 18-24 h, except for Haemophilus influenzae, P. acnes, B. fragilis (48 h).
(§4) All microorganisms were incubated at 37° C.; H. influenzae in a 5% CO2 atmosphere, anaerobes in a N2 --CO2 --H2 (80:10:10) mixture; other organisms in air.
(§5) The growth media are: Oxoid Iso-Sensitest broth for staphylococci and Enterococcus faecalis); Difco Todd Hewitt broth for streptococci; Difco brain heart infusion broth+1% Difco Supplement C for H. influenzae; Difco Wilkins-Chalgren broth for anaerobes.

The subject of another test is Staph. haemolyticus L602. Description: MIC by microbroth dilution. It counts as cell-based. The note with it: 0.01% (w/v) BSA, 10^4 CFU/ml, read after 18-24 h, 37° C., Iso-Sensitest broth. As to the method:
as §1, §2, §3, §4, §5

Another test concerns Strept. sanguis L1721. Description: MIC by microbroth dilution. The note with it: 0.01% (w/v) BSA, 10^4 CFU/ml, read after 18-24 h, 37° C., Todd Hewitt broth. Type of test: cell-based. As to the method: as §1, §2, §3, §4, §5
Test [2] deals with Staphylococcus aureus L165. Description: MIC by microbroth dilution. It counts as cell-based. To be noted: 0.01% (w/v) BSA, 10^4 CFU/ml, read after 18-24 h, 37° C., Iso-Sensitest broth. As to the method:
as §1, §2, §3, §4, §5

Test [3] relates to Staph. epidermidis ATCC 12228 L147. Description: MIC by microbroth dilution. It counts as cell-based. To be noted: 0.01% (w/v) BSA, 10^4 CFU/ml, read after 18-24 h, 37° C., Iso-Sensitest broth. As to the method: as §1, §2, §3, §4, §5
Test [4] relates to Streptococcus pyogenes L49. Description: MIC by microbroth dilution. It counts as cell-based. The note with it: 0.01% (w/v) BSA, 10^4 CFU/ml, read after 18-24 h, 37° C., Todd Hewitt broth. As to the method:
as §1, §2, §3, §4, §5

Test [5] relates to Bacteroides fragilis ATCC 25285 L1011. Description: MIC by microbroth dilution. The note with it: 0.01% (w/v) BSA, 10^5 CFU/ml, read after 48 h, 37° C., anaerobic N2-CO2-H2, Wilkins-Chalgren broth. It counts as cell-based. The method, then: as §1, §2, §3, §4, §5
In test [6] the test system is Enterococc. faecalis ATCC 7080 L149. Description: MIC by microbroth dilution. Type of test: cell-based, Enterococcus faecalis. The note with it: 0.01% (w/v) BSA, 10^4 CFU/ml, read after 18-24 h, 37° C., Iso-Sensitest broth. As to the method:
as §1, §2, §3, §4, §5

For the next test, the system named is Strept. pneumoniae L44. Description: MIC by microbroth dilution. Type of test: cell-based. To be noted: 0.01% (w/v) BSA, 10^4 CFU/ml, read after 18-24 h, 37° C., Todd Hewitt broth. The method, then:
BSA is added to the diluent to avoid possible adherence of the compounds of the invention to the plastic surface of the microtiter wells, as disclosed also by B. Goldstein et al., Antimicrobial Agents and Chemotherapy, 37 (1993), 741-745. Inocula were 10^4 CFU/ml, except for Propionibacterium acnes and Bacteroides fragilis (10^5 CFU/ml). MICs were read after 18-24 h, except for Haemophilus influenzae, P. acnes, B. fragilis (48 h). All microorganisms were incubated at 37° C.; H. influenzae in a 5% CO2 atmosphere, anaerobes in a N2 --CO2 --H2 (80:10:10) mixture; other organisms in air. The growth media are: Oxoid Iso-Sensitest broth for staphylococci and Enterococcus faecalis); Difco Todd Hewitt broth for streptococci; Difco brain heart infusion broth+1% Difco Supplement C for H. influenzae; Difco Wilkins-Chalgren broth for anaerobes.

The test system of test [7] is Haemoph. influenzae ATCC 19418 L970. Description: MIC by microbroth dilution. It counts as cell-based, Haemophilus influenzae. To be noted: 0.01% (w/v) BSA, 10^4 CFU/ml, read after 48 h, 37° C., 5% CO2, brain heart infusion broth+1% Supplement C. As to the method: as §1, §2, §3, §4, §5
The next test relates to gram positive bacteria. The note with it: described by K. Shimanaka et al.; cited from earlier work.
The test system of another test is Strept. agalactiae L310. Description: MIC by microbroth dilution. Type of test: cell-based. To be noted: 0.01% (w/v) BSA, 10^4 CFU/ml, read after 18-24 h, 37° C., Todd Hewitt broth. As to the method: as §1, §2, §3, §4, §5
In another test the test system is enterococci isolates. Description: MIC on clinical isolates. Type of test: cell-based. To be noted: highest MIC observed.
Another test relates to E. faecalis (L1139). Description: experimental septicemia in the mouse (neutropenic). Type of test: in vivo. To be noted: neutropenic CD-1 mice infected i.p.; intravenously twice, immediately and 5 hours after infection; survival on the 7th day. The method, then: (§6) The antimicrobial activity of the compounds of the invention is confirmed also in experimental septicemia in the mouse. Control and treatment groups contain ten CD-1 mice (Charles River) weighing 18-22 g. Two groups of immunocompetent mice are infected intraperitoneally with 0.5 ml of bacterial suspension prepared by diluting an overnight culture of S. aureus ([…]) or S. pyogenes ([…]) with sterile peptonized saline, while one group of neutropenic mice is infected intraperitoneally with 0.5 ml of bacterial suspension prepared by diluting an overnight culture of or E. faecalis ([…]) with sterile peptonized saline. Inocula are adjusted so that untreated animals died of septicemia within 48 h. The compound to be tested is administered intravenously once, immediately after infection with S. aureus, or twice, immediately and 5 hours after infection with S. pyogenes or E. faecalis. On the 7th day, the ED50 in mg/kg is calculated by the method of Spearman and Kraber (D. J. Finney "Statistical Methods in Biological Assay", Griffin, page 524, 1952) from the percentage of surviving animals at each dose.

In a further test the test system is staphylococci isolates. Description: MIC on clinical isolates. It counts as cell-based. The note with it: highest MIC observed.
Another test relates to streptococci isolates. Description: MIC on clinical isolates. To be noted: highest MIC observed. It counts as cell-based.
A further test concerns S. pyogenes (L49). Description: experimental septicemia in the mouse. The note with it: immunocompetent CD-1 mice infected i.p.; intravenously twice, immediately and 5 hours after infection; survival on the 7th day. Type of test: in vivo. As to the method:
as §6

A further test relates to S. aureus (L819). Description: experimental septicemia in the mouse. Type of test: in vivo. To be noted: immunocompetent CD-1 mice infected i.p.; intravenously once, immediately after infection; survival on the 7th day. As to the method: as §6

Consider `CCN(CC)CCNC(=O)C1CCCN1C(=O)C1COC(c2csc(-c3ccc4c(n3)-c3csc(n3)-c3csc(n3)C(C(O)c3ccccc3)NC(=O)CNC(=O)c3nc(sc3COC)C(C(C)C)NC(=O)c3nc(sc3C)C(CC(=O)NC)NC(=O)c3csc-4n3)n2)=N1` (mixture of isomers) [Compound 3], for which the “MIC of the compounds, Propionibact. acnes ATCC 6919 L1014” value in test [1] came out at 0.03 µg/mL. Moreover, the “MIC of the compounds, Staph. haemolyticus L602” value in the test on Staph. haemolyticus L602 turned out to be 0.13 µg/mL. Also, the “MIC of the compounds, Strept. sanguis L1721” value (shortened to “MIC … Strept. sanguis L1721”) in the test with Strept. sanguis L1721 came to 0.25 µg/mL. The “MIC of the compounds, Staphylococcus aureus L165” value (“MIC … Staphylococcus aureus L165” for short) in test [2] was 0.03 µg/mL. Besides, in test [3], the “MIC of the compounds, Staph. epidermidis ATCC 12228 L147” value was found to be 0.13 µg/mL. Moreover, in [4], the “MIC of the compounds, Streptococcus pyogenes L49” value (“MIC … Streptococcus pyogenes L49” for short) stood at 0.5 µg/mL. Further, the “MIC of the compounds, Bacteroides fragilis ATCC 25285 L1011” value in test [5] came to 8 µg/mL. For the same compound, the “MIC of the compounds, Enterococc. faecalis ATCC 7080 L149” value in test [6] came to 0.03 µg/mL. Besides, the “MIC of the compounds, Strept. pneumoniae L44” value (“MIC … Strept. pneumoniae L44” for short) in the test on Strept. pneumoniae L44 amounted to 0.13 µg/mL. For the same compound, the “MIC of the compounds, Haemoph. influenzae ATCC 19418 L970” value in test [7] was found to be 8 µg/mL.
Regarding `CNC(=O)CC1NC(=O)c2csc(n2)-c2ccc(-c3nc(C4=NC(C(=O)N5CCCC5C(N)=O)CO4)cs3)nc2-c2csc(n2)-c2csc(n2)C(C(C)C)NC(=O)CNC(=O)c2csc(n2)C(C(C)C)NC(=O)c2nc1sc2C` (stereo not drawn) [amythiamicin factor A], in the test on gram positive bacteria, the “antimicrobial activity against gram positive bacteria” value is on record as “shows antimicrobial activity against gram positive bacteria”.
Consider `CCN(CC)CCNC(=O)C1CCCN1C(=O)C1COC(c2csc(-c3ccc4c(n3)-c3csc(n3)-c3csc(n3)C(C(O)c3ccccc3)NC(=O)CNC(=O)c3nc(sc3COC)C(C(C)C)NC(=O)c3nc(sc3C)C(CC(=O)NC)NC(=O)c3csc-4n3)n2)=N1` (stereo not drawn) [Compound 3s], for which the “MIC of the compounds, Propionibact. acnes ATCC 6919 L1014” value in [1] was determined as 0.03 µg/mL. In addition, the “MIC of the compounds, Staph. haemolyticus L602” value with Staph. haemolyticus L602 was 0.13 µg/mL. The “MIC … Strept. sanguis L1721” value with Strept. sanguis L1721 came out at 0.13 µg/mL. The “MIC … Staphylococcus aureus L165” value in test [2] was 0.06 µg/mL. In addition, the “MIC of the compounds, Staph. epidermidis ATCC 12228 L147” value in test [3] was found to be 0.13 µg/mL. For the same compound, the “MIC … Streptococcus pyogenes L49” value in test [4] stood at 0.25 µg/mL. Moreover, the “MIC of the compounds, Bacteroides fragilis ATCC 25285 L1011” value in test [5] is 8 µg/mL. In the test on Strept. agalactiae L310, the “MIC of the compounds, Strept. agalactiae L310” value was determined as 0.5 µg/mL. The “MIC of the compounds, Enterococc. faecalis ATCC 7080 L149” value in test [6] turned out to be 0.06 µg/mL. Also, the “MIC against enterococci isolates” value in the test with enterococci isolates is no more than 0.13 µg/mL. The “ED50 in experimental septicemia, E. faecalis (L1139)” value with E. faecalis (L1139) came out at 0.67 mg/kg/dose. Also, the “MIC … Strept. pneumoniae L44” value in the test on Strept. pneumoniae L44 is 0.13 µg/mL. The “MIC against staphylococci isolates” value in the test with staphylococci isolates is no more than 0.5 µg/mL. The “MIC of the compounds, Haemoph. influenzae ATCC 19418 L970” value in test [7] came to 8 µg/mL. For the same compound, the “MIC against streptococci isolates” value in the test on streptococci isolates is no more than 1.0 µg/mL. The “ED50 in experimental septicemia, S. pyogenes (L49)” value with S. pyogenes (L49) was 7 mg/kg/dose. Moreover, in the test on S. aureus (L819), the “ED50 in experimental septicemia, S. aureus (L819)” value came to 1.5 mg/kg/dose.
Regarding `CNC(=O)CC1NC(=O)c2csc(n2)-c2ccc(-c3nc(C4=NC(C(=O)N5CCCC5C(=O)N(C)CCN(C)C)CO4)cs3)nc2-c2csc(n2)-c2csc(n2)C(C(O)c2ccccc2)NC(=O)CNC(=O)c2nc(sc2COC)C(C(C)C)NC(=O)c2nc1sc2C` (mixture of isomers) [Compound 5], the “MIC … Strept. sanguis L1721” value in the test on Strept. sanguis L1721 came out at 0.25 µg/mL. The “MIC … Staphylococcus aureus L165” value in test [2] stood at 0.06 µg/mL. For the same compound, the “MIC … Streptococcus pyogenes L49” value in test [4] stood at 1 µg/mL. Besides, the “MIC … Strept. pneumoniae L44” value in the test with Strept. pneumoniae L44 amounted to 0.25 µg/mL. Besides, in test [7], the “MIC of the compounds, Haemoph. influenzae ATCC 19418 L970” value was found to be 128 µg/mL.

The record behind these values is patent publication US6143739A, “Basic proline-amide derivatives of GE 2270 and GE 2270-like antibiotics” (Biosearch Italia S.p.A., priority 1995, dated 2000).
